# Measurements as given in PubChem BioAssay (NCI).
#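 Five concentrations, 48 hours, 96-well plates. TGI: concentration producing complete growth inhibition.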
# Legend:
# Assay in all cases: inhibition of tumour cell growth, NCI panel, 48 h
# SF-539 CNS = tested on: SF-539 CNS
# MALME-3M melanoma = tested on: MALME-3M melanoma
# SF-295 CNS = tested on: SF-295 CNS
# MDA-MB-231 breast = tested on: MDA-MB-231 breast
# A549 NSCLC = tested on: A549 NSCLC
# NCI/ADR-RES ovarian = tested on: NCI/ADR-RES ovarian
# MDA-MB-435 = tested on: MDA-MB-435
# UACC-257 melanoma = tested on: UACC-257 melanoma
# SK-MEL-28 melanoma = tested on: SK-MEL-28 melanoma
# HCT-15 colon = tested on: HCT-15 colon
# HCT-116 colon = tested on: HCT-116 colon
# RPMI-8226 leukemia = tested on: RPMI-8226 leukemia
# U251 CNS = tested on: U251 CNS
# SR leukemia = tested on: SR leukemia
# NCI-H522 lung = tested on: NCI-H522 lung
# NCI-H460 lung = tested on: NCI-H460 lung
# ACHN renal = tested on: ACHN renal
# DU-145 prostate = tested on: DU-145 prostate
# A498 renal = tested on: A498 renal
# LOX IMVI melanoma = tested on: LOX IMVI melanoma
# SN12C renal = tested on: SN12C renal
# BT-549 breast = tested on: BT-549 breast
# OVCAR-5 ovarian = tested on: OVCAR-5 ovarian
# M14 melanoma = tested on: M14 melanoma
# 786-0 renal = tested on: 786-0 renal
# SNB-19 CNS = tested on: SNB-19 CNS
# IGROV1 ovarian = tested on: IGROV1 ovarian
# CAKI-1 renal = tested on: CAKI-1 renal
# CCRF-CEM leukemia = tested on: CCRF-CEM leukemia
# MOLT-4 leukemia = tested on: MOLT-4 leukemia
# KM12 colon = tested on: KM12 colon
# NCI-H226 lung = tested on: NCI-H226 lung
# COLO 205 colon = tested on: COLO 205 colon
# TK-10 renal = tested on: TK-10 renal
# HOP-92 NSCLC = tested on: HOP-92 NSCLC
# SK-MEL-2 melanoma = tested on: SK-MEL-2 melanoma
# UACC-62 melanoma = tested on: UACC-62 melanoma
# SF-268 CNS = tested on: SF-268 CNS
# OVCAR-4 ovarian = tested on: OVCAR-4 ovarian
# OVCAR-3 ovarian = tested on: OVCAR-3 ovarian
# OVCAR-8 ovarian = tested on: OVCAR-8 ovarian
# SK-MEL-5 melanoma = tested on: SK-MEL-5 melanoma
# SNB-75 CNS = tested on: SNB-75 CNS
# HCC-2998 colon = tested on: HCC-2998 colon
# EKVX NSCLC = tested on: EKVX NSCLC
# RXF 393 renal = tested on: RXF 393 renal
# MCF7 breast = tested on: MCF7 breast
# HS 578T breast = tested on: HS 578T breast
# K-562 leukemia = tested on: K-562 leukemia
# PC-3 prostate = tested on: PC-3 prostate
# T-47D breast = tested on: T-47D breast
# UO-31 renal = tested on: UO-31 renal
# HL-60(TB) leukemia = tested on: HL-60(TB) leukemia
# SW-620 colon = tested on: SW-620 colon
structure (smiles),measurement,setting,value
N#Cc1c(N)c2c(c(-c3ccccc3)c1-c1ccccc1)C(=O)N(NC(=S)Nc1ccccc1)C2=O,TGI,SF-539 CNS,> 100 µM
same,TGI,MALME-3M melanoma,> 100 µM
same,TGI,SF-295 CNS,> 100 µM
same,TGI,MDA-MB-231 breast,> 100 µM
same,TGI,A549 NSCLC,> 100 µM
same,TGI,NCI/ADR-RES ovarian,> 100 µM
same,TGI,MDA-MB-435,> 100 µM
same,TGI,UACC-257 melanoma,> 100 µM
same,TGI,SK-MEL-28 melanoma,> 100 µM
same,TGI,HCT-15 colon,> 100 µM
same,TGI,HCT-116 colon,> 100 µM
same,TGI,RPMI-8226 leukemia,> 100 µM
same,TGI,U251 CNS,> 100 µM
same,TGI,SR leukemia,> 100 µM
same,TGI,NCI-H522 lung,> 100 µM
same,TGI,NCI-H460 lung,> 100 µM
same,TGI,ACHN renal,> 100 µM
same,TGI,DU-145 prostate,> 100 µM
same,TGI,A498 renal,> 100 µM
same,TGI,LOX IMVI melanoma,> 100 µM
same,TGI,SN12C renal,> 100 µM
same,TGI,BT-549 breast,> 100 µM
same,TGI,OVCAR-5 ovarian,> 100 µM
same,TGI,M14 melanoma,> 100 µM
same,TGI,786-0 renal,> 100 µM
same,TGI,SNB-19 CNS,> 100 µM
same,TGI,IGROV1 ovarian,> 100 µM
same,TGI,CAKI-1 renal,> 100 µM
same,TGI,CCRF-CEM leukemia,> 100 µM
same,TGI,MOLT-4 leukemia,> 100 µM
same,TGI,KM12 colon,> 100 µM
same,TGI,NCI-H226 lung,> 100 µM
same,TGI,COLO 205 colon,> 100 µM
same,TGI,TK-10 renal,> 100 µM
same,TGI,HOP-92 NSCLC,> 100 µM
same,TGI,SK-MEL-2 melanoma,> 100 µM
same,TGI,UACC-62 melanoma,> 100 µM
same,TGI,SF-268 CNS,> 100 µM
same,TGI,OVCAR-4 ovarian,> 100 µM
same,TGI,OVCAR-3 ovarian,> 100 µM
same,TGI,OVCAR-8 ovarian,> 100 µM
same,TGI,SK-MEL-5 melanoma,> 100 µM
same,TGI,SNB-75 CNS,> 100 µM
same,TGI,HCC-2998 colon,> 100 µM
same,TGI,EKVX NSCLC,> 100 µM
same,TGI,RXF 393 renal,93.8 µM
same,TGI,MCF7 breast,> 100 µM
same,TGI,HS 578T breast,> 100 µM
same,TGI,K-562 leukemia,> 100 µM
same,TGI,PC-3 prostate,> 100 µM
same,TGI,T-47D breast,> 100 µM
same,TGI,UO-31 renal,> 100 µM
same,TGI,HL-60(TB) leukemia,> 100 µM
same,TGI,SW-620 colon,> 100 µM
